Experimental findings from ChEMBL document CHEMBL4602688, “Bromopyrrole Alkaloids of the Sponge Agelas oroides Collected Near the Israeli Mediterranean Coastline” (J Nat Prod, 2020) are described below.

What all share (type): functional, organism-based
One experiment deals with Pseudomonas aeruginosa. The experiment is described as follows: Antibiofilm activity against Pseudomonas aeruginosa PAO1 assessed as inhibition of biofilm formation incubated for 24 hrs by crystal violet staining based assay. The note with it: PAO1, 24 h.
Experiment [1] has as its system Pseudomonas sp. The experiment is described as follows: Antibiofilm activity against Pseudomonas sp. isolate ISP2_Ab assessed as inhibition of biofilm formation incubated for 24 hrs by crystal violet staining based assay.
Experiment [2] concerns Pseudomonas sp. The experiment is described as follows: Growth inhibition of Pseudomonas sp. isolate ISP2_16 after 24 hrs. The note with it: isolate ISP2_16, 24 h.
The test system of experiment [3] is Kocuria. The experiment is described as follows: Growth inhibition of Kocuria isolate Eys10 after 24 hrs. The note with it: isolate Eys10, 24 h.
Experiment [4] concerns Pseudomonas sp. The experiment is described as follows: Growth inhibition of Pseudomonas sp. isolate ISP2_Ab after 24 hrs.
A further experiment relates to Sporosarcina sp. NB90. The experiment in a line: Growth inhibition of Sporosarcina sp. NB90 after 24 hrs. Particulars: Sporosarcina sp. NB90, 24 h.
Experiment [5] deals with Pseudomonas sp. NB86. The experiment is described as follows: Antibiofilm activity against Pseudomonas sp. NB86 assessed as inhibition of biofilm formation incubated for 24 hrs by crystal violet staining based assay. Particulars: Pseudomonas sp. NB86, 24 h.
Experiment [6] deals with Pseudomonas sp. NB86. The experiment in a line: Growth inhibition of Pseudomonas sp. NB86 after 24 hrs. Particulars: Pseudomonas sp. NB86, 24 h.
A further experiment deals with Bacillus sp. The experiment is described as follows: Growth inhibition of Bacillus sp. isolate ISP2_A_B after 24 hrs. Particulars: Bacillus sp. (in: firmicutes).
Experiment [7] concerns Pseudomonas sp. The experiment is described as follows: Antibiofilm activity against Pseudomonas sp. isolate ISP2_A10pp assessed as inhibition of biofilm formation incubated for 24 hrs by crystal violet staining based assay.
Experiment [8] has as its system Lysinibacillus. The experiment is described as follows: Antibiofilm activity against Lysinibacillus isolate Eys09 assessed as inhibition of biofilm formation incubated for 24 hrs by crystal violet staining based assay. Particulars: isolate Eys09, 24 h.
For experiment [9], the system named is Pseudomonas sp. The experiment is described as follows: Growth inhibition of Pseudomonas sp. isolate ISP2_A10pp after 24 hrs.
Experiment [10] deals with Kocuria. The experiment in a line: Antibiofilm activity against Kocuria isolate Eys10 assessed as inhibition of biofilm formation incubated for 24 hrs by crystal violet staining based assay. The note with it: isolate Eys10, 24 h.
Experiment [11] concerns Lysinibacillus. The experiment is described as follows: Growth inhibition of Lysinibacillus isolate Eys09 after 24 hrs. The note with it: isolate Eys09, 24 h.
Experiment [12] relates to Pseudomonas sp. The experiment is described as follows: Antibiofilm activity against Pseudomonas sp. isolate ISP2_16 assessed as inhibition of biofilm formation incubated for 24 hrs by crystal violet staining based assay. The note with it: isolate ISP2_16, 24 h.

SMILES strings stand for the structures.

For orientation: IC50 means the concentration needed to halve the response being measured. Consider `Nc1nc2c([nH]1)c1c(c3[nH]c(N)nc32)[C@H](CNC(=O)c2cc(Br)c(Br)[nH]2)[C@H]1CNC(=O)c1cc(Br)c(Br)[nH]1` [BENZOSCEPTRIN C], for which, in the experiment on Pseudomonas aeruginosa, the IC50 was 10 µM.
Regarding `Nc1ncc(/C=C/CNC(=O)c2cc(Br)c(Br)[nH]2)[nH]1` [OROIDIN], the IC50 was 5.1 µM in the experiment on Pseudomonas aeruginosa; 3.9 µM in the experiment on Pseudomonas sp. [1]; 170 µM in the experiment with Pseudomonas sp. [2]; 51 µM in the experiment with Kocuria [3]; 310 µM with Pseudomonas sp. [4]; 31 µM in the experiment on Sporosarcina sp. NB90. Moreover, the IC50 with Pseudomonas sp. NB86 [5] was 57 µM; with Pseudomonas sp. NB86 [6], 330 µM; in the experiment on Bacillus sp. it was 39 µM; in the experiment on Pseudomonas sp. [7], 10 µM; in the experiment on Lysinibacillus [8] it was 7.7 µM; in the experiment on Pseudomonas sp. [9], 150 µM. Moreover, the IC50 in the experiment with Kocuria [10] worked out at 10 µM; in the experiment on Lysinibacillus [11] it was 77 µM; in the experiment on Pseudomonas sp. [12], 39 µM.
Turning to `NC(=O)c1cc(Br)c(Br)[nH]1`, the IC50 with Pseudomonas aeruginosa was 15 µM.
